Results published in publication PMC11512107, “Structural and biochemical analysis of ligand binding in yeast Niemann–Pick type C1–related protein” (Life Science Alliance, 2024).
Where “and” joins values, the source holds several entries; their conditions need not be identical. Equal values may be shown once. Entries after “also recorded” stand apart in the source; their conditions may differ.

How the values were obtained:
NPC2 [1] = molecular target: T1, NPC2 (Saccharomyces cerevisiae, UniProt Q12408); experiment: In vitro liposome crosslinking assay of pac-lipids with NPC2; assay type: binding
T1 construct: residues 1–173, UniProt: Q12408; thrombin cleavage site (C); deca-histidine tag (C, cleaved yes); made in house; host or cells: Saccharomyces cerevisiae strain DSY-5
T1 sequence (Q12408 22-173): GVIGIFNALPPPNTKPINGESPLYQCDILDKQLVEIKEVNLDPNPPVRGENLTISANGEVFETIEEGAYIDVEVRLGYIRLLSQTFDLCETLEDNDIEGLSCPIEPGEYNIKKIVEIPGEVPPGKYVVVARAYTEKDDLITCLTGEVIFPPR
Procedure: To compare with the interaction profile of the NTD, crosslinking assays were also performed with purified, delipidated NPC2 (Fig S4A and B). […] NPC2 crosslinks well with all tested pac-lipids but, as for the NTD, most strongly with pacChol (+UV/−UV ratio = 1.91). Robust and consistent crosslinking with pacSph (+UV/−UV ratio = 1.64), pacCer (+UV/−UV = 1.67), and pacPC (+UV/−UV = 1.63) were observed. The crosslinking efficiency for cholesterol and sphingosine analogs was higher for the NTD, whereas crosslinking with ceramide and PC analogs seemed stronger with NPC2.
Lipids from stock vials were dissolved in chloroform and mixed at the desired molar ratio. For in vitro crosslinking, most liposomes consisted of 88.5 mol% DOPC as carrier lipid, 10 mol% DOPS, and 1.5 mol% respective pac-lipid. The pac-lipids were incorporated into liposomes at low concentrations (1.5 mol%) to ensure homogenous distribution and avoid micelle formation. The solvent was evaporated in a rotary evaporator (Hei-VAP Core, Heidolph) for 30 min at 42°C at 150 rpm to create a thin lipid film. Lipid films were hydrated with filtered and degassed PBS (137 mM NaCl, 2.7 mM KCl, 10 mM Na2HPO4, 1.8 mM KH2PO4, pH 7.4). Solutions of hydrated lipids (with a total lipid concentration of 2 mM) were subjected to five freeze–thaw cycles in liquid nitrogen and warm water (42°C) to facilitate breakup of large structures and support formation of smaller multilamellar vesicles. Lipid solutions were stored at −20°C. Before use, liposomes were extruded by passing 20x through a 100-nm pore size polycarbonate filter (Nuclepore; Whatman) using a hand extruder (Avanti Polar Lipids). Extruded liposomes were stored at 4°C, protected from light, and used within 1–2 d.
Extruded liposomes were diluted in PBS until a final lipid concentration of 60 μM, including 1 μM pac-lipid. Purified proteins were added until a final concentration of 1.5 μM in a reaction volume of 100 μl. Protein–liposome mixtures were incubated in 0.5-ml Eppendorf tubes for 30 min at 37°C at 400 rpm (Comfort thermomixer, Eppendorf), then crosslinked (or not) by exposure to 365-nm UV light for 15 min at 4°C using a 100-W mercury lamp (Blak-Ray B-100AP). After crosslinking, the click reaction was performed by adding 0.7 μl of freshly prepared click mix into the sample tubes. The final concentrations of click reagents in sample tubes were 80 μM CuSO4 (Merck), 3 μM TBTA (Merck), 3 μM AF647-picolyl azide (Jena Bioscience), and 80 μM ascorbic acid (Merck). Fresh stock of ascorbic acid solution in water was prepared every time and added to the click mix immediately before starting the click reaction. Click reactions were allowed to proceed for 2 h at 37°C at 400 rpm with the thermomixer. Then, samples were concentrated in a vacuum evaporator for 30 min set to 30°C and supplemented with 4x Lämmli buffer (250 mM Tris, pH 6.8, 9.2% SDS, 40% glycerol, 0.2% bromophenol blue, 100 mM DTT). Samples were boiled for 5 min at 95°C, and clicked protein–lipid complexes were resolved by SDS–PAGE. After extensive destaining in a destain solution (65% water, 25% isopropanol, and 10% acetic acid), the AF647 (a structural analog of Alexa Fluor 647) and Coomassie images were acquired using the LI-COR Odyssey imaging system. Data were evaluated by subtracting background fluorescence, followed by comparing the AF647 signal between crosslinked and non-crosslinked samples, normalized to protein loading based on Coomassie staining. The resulting values are described as +UV/−UV ratios. Statistics were calculated with the Mann–Whitney U test.

NPC2 [2] = molecular target: T1, NPC2; experiment: Fluorescence binding assay of NBD-lipids titrated with NPC2
Procedure: (§1) To investigate substrate candidates for the NTD of NCR1 and NPC2, biochemical assays were conducted with purified protein and fluorescent lipid analogs. The purified, delipidated NTD was titrated into NBD-tagged phospholipids and sphingolipids, in which the fluorophore is attached to the hydrophobic tail of the lipid molecules. An increase in signal is based on an enhanced molecular brightness of the NBD-moiety upon binding in a more hydrophobic environment ([28]). This increase in fluorescence correlates with the concentration of the NTD (Fig 3A), which can be used to infer the affinity of the NTD to a given NBD-lipid (Fig 3B–G). […] The measured increase in fluorescence of each NBD-lipid upon titrating the protein was used to determine an apparent dissociation constant (KD) according to a one-site binding model (Equation (1)).
(§2) Fluorescence binding assays were conducted using NBD-PC, NBD-PS, NBD-Cer, and NBD-Sph (Avanti Polar Lipids), and NBD-PI (Prof. Bütikofer), dissolved in ethanol. […] NBD-lipids were excited at 460 nm, and the emission spectra were recorded within a range of 490–600 nm. […] Emission spectra for NBD-lipids were measured as a control and subtracted from the sample emission spectra. The control cuvette was measured every time the sample was measured to correct the data for bleaching of NBD-Sph. […]

NTD of NCR1 [3] = molecular target: T2, NTD of NCR1 (Saccharomyces cerevisiae, UniProt Q12200); experiment: Competitive binding assays of edelfosine and NBD-Sph to the NTD; details: for Kd: 1 μM NBD-Sph, read-out: apparent KD of NBD-Sph to the NTD
T2 construct: residues 1–249, UniProt: Q12200; thrombin cleavage site (C); deca-histidine tag (C, cleaved yes); made in house; host or cells: Saccharomyces cerevisiae strain DSY-5
From the text: Edelfosine is a synthetic lysophospholipid with cytotoxic antifungal effects. […] To investigate this, two competitive binding assays with edelfosine and NBD-Sph were designed (Fig 4). For the first assay, the NTD was saturated by NBD-Sph and the addition of edelfosine led to the exchange of the NTD-bound substrate, causing a drop in NBD-Sph fluorescence by about 50% (Fig 4A). […] To further evaluate the capability of NBD-Sph to participate in micelle formation, each emission spectrum was normalized with varying concentrations of edelfosine (Fig 4B). […] The shift in the wavelength of the emission peaks indicates a change in the environment of the fluorophore ([48], [49], [50]), likely indicating the transition of NBD-Sph from being free in solution to being incorporated into mixed micelles with edelfosine. Initially, emission peaks at ∼530 nm are observed, assigned to be NTD and NBD-Sph complexes (Fig 4C). […] Similarly, for binding of substrates at higher concentrations than their CMC, this binding assay is rather complex because of edelfosine exceeding its CMC. […] Because of these restrictions, the inhibitory constant for edelfosine is referred to as apparent, rather than a real, inhibitor constant (KI).
Based on the above observations, fixed amounts of edelfosine were added to NBD-Sph before titrating with the NTD in the second assay (Fig 4D).
For measuring the ability of edelfosine to outcompete NBD-Sph, 1 μM NBD-Sph and 1 μM NTD were mixed to form the interaction complex before adding increasing amounts of edelfosine. As a control, edelfosine was titrated into a cuvette containing exclusively NBD-Sph in buffer. To measure the competitive binding between NBD-Sph and edelfosine, 1 μM NBD-lipid in Tris buffer was mixed with either 0.1, 0.5, or 0.7 μM edelfosine in the sample cuvette before titration with the NTD.
Before determination of dissociation constants, the measurements were normalized. The protein–lipid binding measurements were normalized to the highest intensity in each dataset. For the competition assay, the data were normalized to the lowest intensity in the dataset to be able to fit all data to Equation (1), the full model for one-site binding for the saturated fraction, f ([27]):(1) RL/Rt=Rt+KD+Lt-Rt+KD+Lt^2-4⋅Rt⋅Lt/2⋅Rt=f
To determine the dissociation constant of edelfosine (referred to as KI) in the competition assay, it can be assumed that the binding is simple and that all added ligand is bound. In this case, the IC50 can be used to calculate a KI using Equation (2) on normalized data:(2) KI=IC50⋅KD/KD+L
The KD is the dissociation constant of the ligand, [L] is the concentration, and IC50 is the concentration of the inhibitor, where half of the ligand is inhibited.

[4] = CMC measurement of NBD-lipids by fluorescence; assay type: physicochemical; details: MES buffer pH 5.5, fluorescence 460/530 nm
Procedure: The CMC of NBD-Sph was measured by adding increasing concentrations of NBD-Sph to a cuvette containing MES buffer. Between measurements, the solution was mixed and incubated for 10 min. The highest measured concentration of NBD-Sph was 30 μM.
(§3) To determine the CMC, the sigmoid curve was fitted and adjusted to the normalized data: f(x)=l/1+e^−k⋅(x−x0)+b (3)
(§4) Here, l is the scaling of the y-axis, x0 represents the CMC, k determines the sharpness of the fitted curve, and b is the starting position on the y-axis.

NTD of NCR1 [5] = molecular target: T2, NTD of NCR1; experiment: Fluorescence binding assay of NBD-lipids titrated with the NTD
Procedure: as §1, §2

[6] = CMC measurement of edelfosine with Sudan Black B absorbance; assay type: physicochemical; details: MES buffer pH 5.5, Sudan Black B absorbance 600 nm, n = 1
Procedure: As edelfosine is not fluorescent, a different approach was used to measure its CMC. The hydrophobic dye, Sudan Black B, was used to stain micelles. The absorption of solutions consisting of MES buffer, Sudan Black, and increasing concentrations of edelfosine was measured using a spectrophotometer (Hitachi U-2010).
as §3, §4

NTD of NCR1 [7] = molecular target: T2, NTD of NCR1; experiment: In vitro liposome crosslinking assay of pac-lipids with the NTD; assay type: binding; details: liposomes with 1.5 mol% pac-lipid (1 μM), 1.5 μM NTD, average ratio
From the text: In a parallel approach, the substrate scope of the NTD and NPC2 was probed with photo-activatable and clickable (pac) lipids. Pac-lipids contain small chemical modifications for click chemistry reactions, with fluorophores such as AF647 (a structural analog of Alexa Fluor 647), and for UV-activated photo-crosslinking, respectively ([45]). In contrast to NBD-tagged lipids delivered in solution, pac-lipids such as pac-cholesterol (pacChol), pac-phosphatidylcholine (pacPC), pac-sphingosine (pacSph), and pac-ceramide (pacCer) were reconstituted in liposomal membranes (Fig 5A and B). As expected, the delipidated NTD crosslinks with pacChol (average +UV/−UV ratio = 2.11). Crosslinking of the NTD with pacSph (+UV/−UV = 1.73) and, to a lesser extent, with pacCer and pacPC (+UV/−UV = 1.40 and 1.12), respectively, was also detected (Fig 5C and D).
Lipids from stock vials were dissolved in chloroform and mixed at the desired molar ratio. […]
Extruded liposomes were diluted in PBS until a final lipid concentration of 60 μM, including 1 μM pac-lipid. […] Data were evaluated by subtracting background fluorescence, followed by comparing the AF647 signal between crosslinked and non-crosslinked samples, normalized to protein loading based on Coomassie staining. […] Statistics were calculated with the Mann–Whitney U test.

[8] = parameters: method as in PMID 19348755; details: aggregated form; cited from earlier work
[9] = 20 mol% ergosterol: 1 μM pac-lipid and 13 μM ergosterol

T2 sequence (Q12200 20-249): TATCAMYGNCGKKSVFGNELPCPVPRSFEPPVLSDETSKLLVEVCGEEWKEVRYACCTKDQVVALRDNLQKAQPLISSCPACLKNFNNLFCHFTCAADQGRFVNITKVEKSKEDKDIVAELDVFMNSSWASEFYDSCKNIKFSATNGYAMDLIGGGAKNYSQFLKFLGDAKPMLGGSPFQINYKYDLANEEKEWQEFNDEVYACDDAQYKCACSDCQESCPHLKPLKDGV

## CC(C)[C@@H](C)/C=C/[C@@H](C)[C@H]1CC[C@H]2C3=CC=C4C[C@@H](O)CC[C@]4(C)[C@H]3CC[C@]12C [Ergosterol, ergosterol]
NPC2 [1]; [9]
  effect of ergosterol on NPC2 crosslinking with pacChol and pacPC: does not visibly influence
  effect of ergosterol on NPC2 crosslinking with pacSph and pacCer: trend toward increased crosslinking
NPC2 [1]; 20 mol% ergosterol: 1 μM pac-lipid and 13 μM ergosterol, listed as ergosterol
  effect of ergosterol on NPC2 crosslinking with pacSph and pacCer: increased crosslinking

## NC(CO)C(O)C=CCCCCCCCCCCCCCNc1ccc([N+](=O)[O-])c2nonc12 (centres unmarked) [NBD-Sph]
NPC2 [2]; pH 5.5, 1 μM NBD-lipid, values marked ° are apparent KD
  Kd: ~580 nM and 580 nM
NPC2 [2]; pH 7.5, 1 μM NBD-lipid
  Kd: ~530 nM and 530 nM
NTD of NCR1 [3]; 0.0 μM edelfosine, pH 7.5
  Kd: 120 nM and ~120 nM
NTD of NCR1 [3]; 0.1 μM edelfosine, pH 7.5
  Kd: 120 ± 10 nM
NTD of NCR1 [3]; 0.5 μM edelfosine, pH 7.5
  Kd: 160 ± 60 nM
NTD of NCR1 [3]; 0.7 μM edelfosine, pH 7.5
  Kd: 210 nM and ~210 nM
[4]
  critical micelle concentration (CMC): ~13 µM
NTD of NCR1 [5]; pH 5.5, 1 μM NBD-lipid, values for NBD-PC, NBD-PS, NBD-Cer (marked °) are apparent KD, above CMC
  Kd: ~250 nM and 250 nM
NTD of NCR1 [5]; pH 7.5, 1 μM NBD-lipid
  Kd: ~120 nM and 120 nM

## CCCCCCCCCCCCCCCCCCOCC(COP(=O)([O-])OCC[N+](C)(C)C)OC (centres unmarked) [edelfosine]
[6]
  critical micelle concentration (CMC): 0.7 µM and 0.715 µM
NTD of NCR1 [3]; 1 μM NBD-Sph mixed with 1 μM NTD, 0 to 4 μM edelfosine, pH 7.5, read-out: IC50 of edelfosine against NBD-Sph binding to the NTD
  IC50: 480 nM and 500 nM
NTD of NCR1 [3]; NTD saturated by NBD-Sph, pH 7.5
  drop in NBD-Sph fluorescence on addition of edelfosine: about 50%
NTD of NCR1 [3]; calculated from IC50 with Equation (2), apparent, edelfosine exceeds its CMC, read-out: apparent inhibitor constant (KI)
  Ki: ~50 nM
NPC2 [1]; fivefold excess: 1 μM pac-lipid and 5 μM edelfosine in liposomes
  effect of edelfosine on NPC2 crosslinking with pac-lipids: no noticeable inhibition of crosslinking; also recorded: no noticeable effect

## C#CCCCCOC(=O)CCC(C)C1CCC2C3CC4(N=N4)C4CC(O)CCC4(C)C3CCC12C (centres unmarked) [pacChol]
NPC2 [1]; liposomes with 1.5 mol% pac-lipid (1 μM), 1.5 μM NPC2
  +UV/−UV ratio (crosslinking with NPC2): 1.91
NTD of NCR1 [7]
  +UV/−UV ratio (crosslinking with NTD): 2.11

## CCCCCCCCCCCCC/C=C/[C@@H](O)[C@@H](N)CO [sphingosine]
[8]
  pKa: 6.61
